Data from ChEMBL document CHEMBL1152857, “Possible anticancer agents: QSAR analogs of glutamamide: synthesis and pharmacological activity of 1,5-N,N'-disubstituted-2-(substituted benzenesulphonyl) glutamamides” (2009).

System: not listed separately
Experiment: Anticancer activity against mouse EAC cells xenografted in Swiss albino mouse assessed as inhibition of ascitic cell count
Type: functional, Ehrlich
Conditions: not given

In order of falling “inhibition (INH)” value:
1. CC(C)CNC(=O)CCC(NS(=O)(=O)c1cc(Cl)ccc1Cl)C(=O)NCC(C)C (stereo not given)  79.3%
2. CC(C)NC(=O)CCC(NS(=O)(=O)c1cc(Cl)ccc1Cl)C(=O)NC(C)C (stereo not given)  73.3%
3. O=C(CCC(NS(=O)(=O)c1cc(Cl)ccc1Cl)C(=O)Nc1ccccc1)Nc1ccccc1 (stereo not given)  71.1%
4. CCNC(=O)CCC(NS(=O)(=O)c1cc(Cl)ccc1Cl)C(=O)NCC (stereo not given)  67.5%
5. O=C(CCC(NS(=O)(=O)c1ccc(Br)cc1)C(=O)Nc1ccccc1)Nc1ccccc1 (stereo not given)  66.5%
6. CCCCCNC(=O)CCC(NS(=O)(=O)c1cc(Cl)ccc1Cl)C(=O)NCCCCC (stereo not given)  61.1%
7. CCCCNC(=O)CCC(NS(=O)(=O)c1cc(Cl)ccc1Cl)C(=O)NCCCC (stereo not given)  57.9%
8. O=C(CCC(NS(=O)(=O)c1cc(Cl)ccc1Cl)C(=O)NCc1ccccc1)NCc1ccccc1 (stereo not given)  53.1%
9. Cc1ccc(Cl)c(S(=O)(=O)NC(CCC(=O)NC(C)C)C(=O)NC(C)C)c1 (stereo not given)  53%
10. CCCCCCNC(=O)CCC(NS(=O)(=O)c1cc(Cl)ccc1Cl)C(=O)NCCCCCC (stereo not given)  52.9%
11. CCCCCCNC(=O)CCC(NS(=O)(=O)c1ccc(C)cc1C)C(=O)NCCCCCC (stereo not given)  52.1%
12. CC(C)CNC(=O)CCC(NS(=O)(=O)c1ccc(Br)cc1)C(=O)NCC(C)C (stereo not given)  50.8%
13. Cc1ccc(Cl)c(S(=O)(=O)NC(CCC(=O)NCc2ccccc2)C(=O)NCc2ccccc2)c1 (stereo not given)  50.5%
14. O=C(CCC(NS(=O)(=O)c1ccc(Br)cc1)C(=O)NCc1ccccc1)NCc1ccccc1 (stereo not given)  48.9%
15. CCCCCNC(=O)CCC(NS(=O)(=O)c1cc(C)ccc1Cl)C(=O)NCCCCC (stereo not given)  47.1%
16. O=C(CCC(NS(=O)(=O)c1ccc(Br)cc1)C(=O)NC1CCCCC1)NC1CCCCC1 (stereo not given)  47%
17. Cc1ccc(Cl)c(S(=O)(=O)NC(CCC(=O)Nc2ccccc2)C(=O)Nc2ccccc2)c1 (stereo not given)  45.5%
18. O=C(CCC(NS(=O)(=O)c1ccc(Cl)c(Cl)c1)C(=O)NCc1ccccc1)NCc1ccccc1 (stereo not given)  45.3%
19. CCCCNC(=O)CCC(NS(=O)(=O)c1cc(C)ccc1Cl)C(=O)NCCCC (stereo not given)  43.5%
20. CC(C)(C)c1ccc(S(=O)(=O)NC(CCC(N)=O)C(N)=O)cc1 (stereo not given)  42.15%
21. Cc1ccc(Cl)c(S(=O)(=O)NC(CCC(=O)NCC(C)C)C(=O)NCC(C)C)c1 (stereo not given)  40%
22. CCCCNC(=O)CCC(NS(=O)(=O)c1ccc(C)cc1C)C(=O)NCCCC (stereo not given)  35.6%
23. Cc1ccc(S(=O)(=O)NC(CCC(N)=O)C(N)=O)c(C)c1 (stereo not given)  35.2%
24. Cc1ccc(Cl)c(S(=O)(=O)NC(CCC(=O)NC2CCCCC2)C(=O)NC2CCCCC2)c1 (stereo not given)  35%
25. CC(C)NC(=O)CCC(NS(=O)(=O)c1ccc(C(C)(C)C)cc1)C(=O)NC(C)C (stereo not given)  34.1%
26. CCCCCCNC(=O)CCC(NS(=O)(=O)c1cc(C)ccc1Cl)C(=O)NCCCCCC (stereo not given)  33.4%
27. CCNC(=O)CCC(NS(=O)(=O)c1cc(C)ccc1Cl)C(=O)NCC (stereo not given)  32.3%
28. Cc1ccc(Cl)c(S(=O)(=O)NC(CCC(N)=O)C(N)=O)c1 (stereo not given)  28.6%
29. CCNC(=O)CCC(NS(=O)(=O)c1ccc(C(C)(C)C)cc1)C(=O)NCC (stereo not given)  21.6%
30. O=C(CCC(NS(=O)(=O)c1ccc(Cl)c(Cl)c1)C(=O)NC1CCCCC1)NC1CCCCC1 (stereo not given)  17.4%
31. CCCCCNC(=O)CCC(NS(=O)(=O)c1ccc(Cl)c(Cl)c1)C(=O)NCCCCC (stereo not given)  10%

System: IMR-32
Experiment: Cytotoxicity against human IMR32 cells at 60 ug/ml by MTT assay
Type: functional
Conditions: not given

In order of rising inhibition at 60 µg/mL:
1. O=C(CCC(NS(=O)(=O)c1ccc(Br)cc1)C(=O)Nc1ccccc1)Nc1ccccc1 (stereo not given)  10%
2. CCCCCCNC(=O)CCC(NS(=O)(=O)c1cc(C)ccc1Cl)C(=O)NCCCCCC (stereo not given)  11.3%
3. O=C(CCC(NS(=O)(=O)c1ccc(Cl)c(Cl)c1)C(=O)NCc1ccccc1)NCc1ccccc1 (stereo not given)  11.4%
4. CCCCCNC(=O)CCC(NS(=O)(=O)c1cc(Cl)ccc1Cl)C(=O)NCCCCC (stereo not given)  12.2%
5. CCCCCCNC(=O)CCC(NS(=O)(=O)c1cc(Cl)ccc1Cl)C(=O)NCCCCCC (stereo not given)  12.4%
6. CCNC(=O)CCC(NS(=O)(=O)c1cc(Cl)ccc1Cl)C(=O)NCC (stereo not given)  12.9%
7. O=C(CCC(NS(=O)(=O)c1cc(Cl)ccc1Cl)C(=O)NCc1ccccc1)NCc1ccccc1 (stereo not given)  13.4%
8. CCCCCNC(=O)CCC(NS(=O)(=O)c1cc(C)ccc1Cl)C(=O)NCCCCC (stereo not given)  14.7%
9. CCCNC(=O)CCC(NS(=O)(=O)c1cc(C)ccc1Cl)C(=O)NCCC (stereo not given)  14.9%
10. CCCCNC(=O)CCC(NS(=O)(=O)c1cc(Cl)ccc1Cl)C(=O)NCCCC (stereo not given)  15.8%
11. CC(C)NC(=O)CCC(NS(=O)(=O)c1cc(Cl)ccc1Cl)C(=O)NC(C)C (stereo not given)  16.7%
12. CC(C)CNC(=O)CCC(NS(=O)(=O)c1ccc(Br)cc1)C(=O)NCC(C)C (stereo not given)  17.1%
13. CCCCNC(=O)CCC(NS(=O)(=O)c1cc(C)ccc1Cl)C(=O)NCCCC (stereo not given)  18%
14. O=C(CCC(NS(=O)(=O)c1ccc(Br)cc1)C(=O)NC1CCCCC1)NC1CCCCC1 (stereo not given)  18.4%
15. CC(C)CNC(=O)CCC(NS(=O)(=O)c1cc(Cl)ccc1Cl)C(=O)NCC(C)C (stereo not given)  20.4%
16. CCCCCNC(=O)CCC(NS(=O)(=O)c1ccc(Cl)c(Cl)c1)C(=O)NCCCCC (stereo not given)  20.8%
17. O=C(CCC(NS(=O)(=O)c1cc(Cl)ccc1Cl)C(=O)Nc1ccccc1)Nc1ccccc1 (stereo not given)  22.9%
18. O=C(CCC(NS(=O)(=O)c1ccc(Cl)c(Cl)c1)C(=O)NC1CCCCC1)NC1CCCCC1 (stereo not given)  24%
19. Cc1ccc(Cl)c(S(=O)(=O)NC(CCC(N)=O)C(N)=O)c1 (stereo not given)  25.8%
20. Cc1ccc(S(=O)(=O)NC(CCC(N)=O)C(N)=O)c(C)c1 (stereo not given)  28.2%
21. Cc1ccc(Cl)c(S(=O)(=O)NC(CCC(=O)NC(C)C)C(=O)NC(C)C)c1 (stereo not given)  29.8%
22. CCNC(=O)CCC(NS(=O)(=O)c1cc(C)ccc1Cl)C(=O)NCC (stereo not given)  31.8%
23. CCCCNC(=O)CCC(NS(=O)(=O)c1ccc(C)cc1C)C(=O)NCCCC (stereo not given)  46.1%
24. Cc1ccc(Cl)c(S(=O)(=O)NC(CCC(=O)NC2CCCCC2)C(=O)NC2CCCCC2)c1 (stereo not given)  49.7%
25. CCNC(=O)CCC(NS(=O)(=O)c1ccc(C(C)(C)C)cc1)C(=O)NCC (stereo not given)  58.4%
26. CC(C)NC(=O)CCC(NS(=O)(=O)c1ccc(C(C)(C)C)cc1)C(=O)NC(C)C (stereo not given)  65.6%
27. CCCCCCNC(=O)CCC(NS(=O)(=O)c1ccc(C)cc1C)C(=O)NCCCCCC (stereo not given)  66%

System: not listed separately
Experiment: Anticancer activity against mouse EAC cells xenografted in Swiss albino mouse assessed as inhibition of ascitic fluid weight at 1 mg/kg
Type: functional
Conditions: Ehrlich

In order of rising inhibition in vivo at 1 mg/kg:
1. [N-]=[N+]=CC(=O)CC[C@H](N)C(=O)O [6-DIAZO-5-OXO-L-NORLEUCINE]  100%
2. N#[N+]/C=C(\[O-])OC[C@H](N)C(=O)O [AZASERIN]  100%
3. CO[C@@]12[C@H](COC(N)=O)C3=C(C(=O)C(C)=C(N)C3=O)N1C[C@@H]1N[C@@H]12 [MITOMYCIN]  100%

System: not listed separately
Experiment: Anticancer activity against mouse EAC cells xenografted in Swiss albino mouse assessed as inhibition of ascitic cell count at 1 mg/kg
Type: functional
Conditions: Ehrlich

In order of falling inhibition in vivo at 1 mg/kg:
1. [N-]=[N+]=CC(=O)CC[C@H](N)C(=O)O [6-DIAZO-5-OXO-L-NORLEUCINE]  100%
2. N#[N+]/C=C(\[O-])OC[C@H](N)C(=O)O [AZASERIN]  100%
3. CO[C@@]12[C@H](COC(N)=O)C3=C(C(=O)C(C)=C(N)C3=O)N1C[C@@H]1N[C@@H]12 [MITOMYCIN]  100%

System: not listed separately
Experiment: Anticancer activity against mouse EAC cells xenografted in Swiss albino mouse assessed as inhibition of ascitic fluid weight
Type: functional, Ehrlich
Conditions: not given

In order of rising “inhibition (INH)” value:
1. O=C(CCC(NS(=O)(=O)c1ccc(Cl)c(Cl)c1)C(=O)NC1CCCCC1)NC1CCCCC1 (stereo not given)  16.8%
2. CCCCCCNC(=O)CCC(NS(=O)(=O)c1cc(C)ccc1Cl)C(=O)NCCCCCC (stereo not given)  24.2%
3. CCCCNC(=O)CCC(NS(=O)(=O)c1cc(C)ccc1Cl)C(=O)NCCCC (stereo not given)  25.2%
4. CC(C)(C)c1ccc(S(=O)(=O)NC(CCC(N)=O)C(N)=O)cc1 (stereo not given)  27.5%
5. Cc1ccc(Cl)c(S(=O)(=O)NC(CCC(=O)NCC(C)C)C(=O)NCC(C)C)c1 (stereo not given)  27.9%
6. CCNC(=O)CCC(NS(=O)(=O)c1cc(C)ccc1Cl)C(=O)NCC (stereo not given)  28.1%
7. CCCCCNC(=O)CCC(NS(=O)(=O)c1ccc(Cl)c(Cl)c1)C(=O)NCCCCC (stereo not given)  28.1%
8. CCNC(=O)CCC(NS(=O)(=O)c1ccc(C(C)(C)C)cc1)C(=O)NCC (stereo not given)  30.8%
9. Cc1ccc(S(=O)(=O)NC(CCC(N)=O)C(N)=O)c(C)c1 (stereo not given)  31.2%
10. CCCCCCNC(=O)CCC(NS(=O)(=O)c1cc(Cl)ccc1Cl)C(=O)NCCCCCC (stereo not given)  31.9%
11. CCCCCNC(=O)CCC(NS(=O)(=O)c1cc(C)ccc1Cl)C(=O)NCCCCC (stereo not given)  33.3%
12. CCCCNC(=O)CCC(NS(=O)(=O)c1cc(Cl)ccc1Cl)C(=O)NCCCC (stereo not given)  34%
13. O=C(CCC(NS(=O)(=O)c1cc(Cl)ccc1Cl)C(=O)Nc1ccccc1)Nc1ccccc1 (stereo not given)  35.2%
14. Cc1ccc(Cl)c(S(=O)(=O)NC(CCC(=O)NCc2ccccc2)C(=O)NCc2ccccc2)c1 (stereo not given)  36.5%
15. Cc1ccc(Cl)c(S(=O)(=O)NC(CCC(N)=O)C(N)=O)c1 (stereo not given)  36.5%
16. CCCCCCNC(=O)CCC(NS(=O)(=O)c1ccc(C)cc1C)C(=O)NCCCCCC (stereo not given)  38.4%
17. CC(C)NC(=O)CCC(NS(=O)(=O)c1cc(Cl)ccc1Cl)C(=O)NC(C)C (stereo not given)  38.5%
18. O=C(CCC(NS(=O)(=O)c1ccc(Cl)c(Cl)c1)C(=O)NCc1ccccc1)NCc1ccccc1 (stereo not given)  40%
19. Cc1ccc(Cl)c(S(=O)(=O)NC(CCC(=O)NC2CCCCC2)C(=O)NC2CCCCC2)c1 (stereo not given)  40.2%
20. Cc1ccc(Cl)c(S(=O)(=O)NC(CCC(=O)Nc2ccccc2)C(=O)Nc2ccccc2)c1 (stereo not given)  41.2%
21. CCCCCNC(=O)CCC(NS(=O)(=O)c1cc(Cl)ccc1Cl)C(=O)NCCCCC (stereo not given)  41.2%
22. CC(C)CNC(=O)CCC(NS(=O)(=O)c1cc(Cl)ccc1Cl)C(=O)NCC(C)C (stereo not given)  42.5%
23. O=C(CCC(NS(=O)(=O)c1ccc(Br)cc1)C(=O)NC1CCCCC1)NC1CCCCC1 (stereo not given)  43%
24. CC(C)NC(=O)CCC(NS(=O)(=O)c1ccc(C(C)(C)C)cc1)C(=O)NC(C)C (stereo not given)  44.7%
25. CCCCNC(=O)CCC(NS(=O)(=O)c1ccc(C)cc1C)C(=O)NCCCC (stereo not given)  46.1%
26. O=C(CCC(NS(=O)(=O)c1cc(Cl)ccc1Cl)C(=O)NCc1ccccc1)NCc1ccccc1 (stereo not given)  49.9%
27. CC(C)CNC(=O)CCC(NS(=O)(=O)c1ccc(Br)cc1)C(=O)NCC(C)C (stereo not given)  54%
28. CCNC(=O)CCC(NS(=O)(=O)c1cc(Cl)ccc1Cl)C(=O)NCC (stereo not given)  60.5%
29. O=C(CCC(NS(=O)(=O)c1ccc(Br)cc1)C(=O)Nc1ccccc1)Nc1ccccc1 (stereo not given)  63.4%
30. O=C(CCC(NS(=O)(=O)c1ccc(Br)cc1)C(=O)NCc1ccccc1)NCc1ccccc1 (stereo not given)  70%
31. Cc1ccc(Cl)c(S(=O)(=O)NC(CCC(=O)NC(C)C)C(=O)NC(C)C)c1 (stereo not given)  81.5%
